Entries after “also recorded” stand apart in the source; their conditions may differ.
How the values were obtained:
[1] = Dose-adjusted serum antidepressant concentrations across pregnancy compared to the women's own baseline (routine TDM, LC-MS, linear mixed model); format: in vivo, human; settings: for Change of serum concentration in pregnancy compared to baseline (in words): dose-adjusted, fluoxetine and venlafaxine = active moiety
Description: After obtaining approval from the Regional Committee for Medical and Health Research Ethics in Mid Norway, the Norwegian Centre for Research Data (Data Protection Official), the Norwegian Directorate of Health and the Medical Birth Registry of Norway (MBRN) publication council, serum concentration data for antidepressants were collected from the two largest TDM services for psychotropic drugs in Norway (i.e. Department of Clinical Pharmacology at St. Olav University Hospital in Trondheim, and Center for Psychopharmacology at Diakonhjemmet Hospital in Oslo). […] The antidepressant TDM data contain serum concentration measurements taken in a naturalistic setting from psychiatry inpatients and outpatients. In addition to measured serum concentrations, the databases contain information obtained from the requisition forms, such as the prescribed antidepressant dose, time of last drug intake, time of blood sampling, and types and doses of concomitant drugs.
First, a combined laboratory TDM file was created, containing all serum concentration measurements (for any drug) in the period October 1999 –December 2011 for all women of reproductive age (i.e. born 1950–2000). […] Using the unique 11-digit identification number assigned to all individuals living in Norway, the MBRN could identify all pregnant women in the TDM data set. […] For the current study we retrieved the following information: the personal identification number, the drug analysed, the measured drug serum concentration, time of last dose, time of sampling, drug dose, concomitant drug use, other clinical information, name of the responsible physician, gestational week at the time of sampling (calculated from the sampling date and the pregnancy onset date as determined by obstetric ultrasound if available, or by last menstruation), and date of delivery.
If the requisition form lacked information on drug dose the authors contacted the responsible physician, who attempted to obtain this information from the medical record. If we were unable to retrieve this information, the analysis was excluded.
Having identified the pregnant women and their individual pregnancy periods in the extracted data file, we used the original TDM databases to retrieve serum concentration measurements before and after pregnancy from the same women, to serve as baseline observations for each of the included subjects. […] These analyses were not used in the statistical model, only for visual comparison. The remaining 420 analyses were used for the statistical comparisons.
Since multiple measurements were available from the same patient a linear mixed model was used. […] Baseline measurements were set to gestational week 0 in the model. Then, the effect of gestational week on concentration compared to baseline could be estimated for each drug.
Data are presented as means with 95% confidence intervals.

[2] = Serum metabolite concentrations and parent compound/metabolite ratios at baseline and in the third trimester (TDM, linear mixed model); settings: for Change of parent compound or metabolite serum concentration in pregnancy (in words): analyses with metabolite data (Table 3); for Baseline conc., Estimate (parent compound or metabolite) / Loge serum concentration, Intercept estimate (parent compound or metabolite): only analyses with metabolite data; for Baseline conc., Estimate (parent compound or metabolite): dose-adjusted to DDD; for Loge PMR, Intercept estimate / Loge PMR, Change per gestational week estimate: loge-transformed parent compound/metabolite ratio; for Loge PMR, Intercept estimate: baseline; for Loge PMR, Change per gestational week estimate / Loge serum concentration, Change per gestational week estimate (parent compound or metabolite): per week of pregnancy; for Loge serum concentration, Intercept estimate (parent compound or metabolite) / Loge serum concentration, Change per gestational week estimate (parent compound or metabolite): loge-transformed; for Loge serum concentration, Intercept estimate (parent compound or metabolite): baseline (day 0 of pregnancy)
Description: Quantification of the drug concentrations was performed with liquid chromatography-mass spectrometry/tandem mass spectrometry (LC-MS/LC-MS/MS). […] In brief, the drugs were extracted from serum by liquid-liquid extraction, using a mixture of hexane, acetonitrile and/or butanol, or dichloromethane and isopropanol. Thereafter, the analytes were separated on C18 columns using methanol, acetonitrile, formic acid or ammonium acetate as mobile phases, and quantified on LC-MS or LC-MS-MS systems. Calibration curves were constructed for each assay with drug-free human serum by the addition of varying concentrations of the antidepressants and their respective metabolites.
Serum concentrations in ng/mL were divided by the daily dose used by the person at the time of sampling, providing a serum concentration/dose ratio, and then multiplied by the defined daily dose (DDD), which is the assumed average maintenance dose per day for that drug used for its main indication in adults [28]. […] All concentrations presented and discussed in this article, including tables and figures, are dose-adjusted to the DDD of the drug.
For drugs where both the parent drug and the metabolite were measured, parent drug/metabolite concentration ratios during pregnancy were compared to baseline values as described above; ratios were loge-transformed and fitted into a linear mixed model, estimating the baseline ratios and the effect of each gestational week.
All model parameters, including variance components, were estimated by the method of maximum likelihood using STATA 13 command “mixed”. […] P values less than 0.05 were considered statistically significant.

[3] = cited from earlier work
[4] = Previous studies of antidepressant plasma/serum concentrations in pregnancy (literature quoted in the Discussion); format: in vivo, human; settings: 0.3 ng/mL per gestational week applied to this study's data
[5] = baseline to third trimester (gestational week 34)

| SMILES | Change of serum concentration in pregnancy compared to baseline (in words) [1] | Change of parent compound or metabolite serum concentration in pregnancy (in words) [2] | Change from baseline conc., Estimate (parent compound or metabolite) [2, 5] | Baseline conc., Estimate (parent compound or metabolite) ([2]; day 0 (non-pregnant)) [ng/mL] | Loge PMR, Intercept estimate [2] | Loge PMR, Change per gestational week estimate [2] | Loge serum concentration, Intercept estimate (parent compound or metabolite) [2] | Loge serum concentration, Change per gestational week estimate (parent compound or metabolite) [2] | further results |
| --- | --- | --- | --- | --- | --- | --- | --- | --- | --- |
| COc1ccc(C(CN(C)C)C2(O)CCCCC2)cc1 (stereo not shown) [Venlafaxine] | remain largely unchanged | trend towards a statistically significant decline | -40% | 35.8 | -0.927 | -0.011 | 3.577 | -0.015 | Change of serum concentration in pregnancy compared to baseline (in words) ([1]; listed as venlafaxine): did not change significantly; also recorded: not statistically significant; Reduction in plasma levels in pregnancy compared to baseline ([3]; case report, ref Klier et al. [16]): more than 50%; Reduction in levels in pregnancy ([3]; prospective study of seven pregnancies, ref ter Horst et al. [24]): 13% |
| Fc1ccc([C@@H]2CCNC[C@H]2COc2ccc3c(c2)OCO3)cc1 [Paroxetine] |  |  |  |  |  |  |  |  | Serum concentration in pregnancy as share of pre-pregnancy levels ([1]; drop to about this share of pre-pregnancy levels): about 50%; Serum concentration in third trimester lower than baseline (reduction) ([1]; mid third trimester (gestational week 34) vs baseline, value given as size of the reduction): 51%; Reduction in week 34 to which the cited decline per week translates for the present data [4]: 30%; Concentrations in third trimester compared to postpartum (in words) ([3]; 12 pregnancies, no numbers provided, ref Brogtrop et al. [17]): lower concentrations in the third trimester compared to postpartum; Increase of maternal plasma concentration per gestational week ([3]; intermediate and poor CYP2D6 metabolizers): 0.6 ng/mL per gestational week; Decline of maternal plasma concentration per gestational week ([3]; ultrarapid or extensive CYP2D6 metabolizers, 74 pregnancies, ref Ververs et al. [20]): 0.3 ng/mL per gestational week |
| CNCC[C@H](Oc1ccc(C(F)(F)F)cc1)c1ccccc1 [S-fluoxetine] |  |  |  |  |  |  |  |  | Enantiomer concentration change in pregnancy, chiral analysis (in words) ([3]; in vivo): declined more than R-fluoxetine |
| N[C@H]1CC[C@@H](c2ccc(Cl)c(Cl)c2)c2ccccc21 [Desmethylsertraline] |  | increasing levels | +120% | 18.4 |  |  | 2.914 | 0.023 |  |
| CNCCCC1(c2ccc(F)cc2)OCc2cc(C#N)ccc21 (stereo not shown) [Desmethylcitalopram] |  |  | -33% | 12.6 |  |  | 2.534 | -0.012 |  |
| CNCCC(Oc1ccc(C(F)(F)F)cc1)c1ccccc1 (stereo not shown) [Fluoxetine] | did not change significantly; also recorded: not statistically significant; also recorded: remain largely unchanged; also recorded: no major decline | decline | -31% | 77.7 | -0.045 | -0.013 | 4.353 | -0.011 | Parent compound / metabolite ratio (PMR), change from baseline, estimate [2, 5]: -36%; Parent compound / metabolite ratio (PMR), baseline estimate ([2]; day 0 (non-pregnant), ratio): 1.0; Parent compound / metabolite ratio (PMR), third trimester estimate ([2]; gestational week 34, ratio): 0.6; Parent compound / metabolite ratio in mid third trimester lower than baseline ([2]; value printed as size of the decline): 36%; Third trimester concentrations of the active moiety lower than baseline ([3]; fluoxetine plus norfluoxetine, 11 pregnancies, ref Heikkinen et al.): 32% |

From publication PMC5510868 (PLoS ONE, 2017)
